# Experimental data published in patent US10111880B2, “Compounds for the treatment of diabetes and disease complications arising from same” (BEN-GURION UNIVERSITY OF THE NEGEV RESEARCH AND DEVELOPMENT …, priority 2013, dated 2018).
# How the values were obtained:
# Format in all cases: in vivo, mouse
# [1] = tested on: STZ-induced diabetic ICR mice; assay: Glucose tolerance test in STZ mice after short course (2 weeks) AGS treatment
# Experimental: (§1) Eight weeks-old female ICR mice were injected intraperitoneally (IP) with Streptozotocin (STZ), at a dose of 40 mg/Kg, for 5 consecutive days. The following day and onward, mice were administered the AGS compounds (499 or 500, as indicated), at a dose of 6 mg/Kg, either subcutaneously or orally, every other day. Blood glucose levels were monitored daily.
# (§2) After the establishment of diabetes (i.e. three consecutive blood glucose measurements of >200 mg/dL), mouse groups were further sub-divided into 2 sub-groups, one of each received insulin (gradual administration of 0.5-6 units/Kg, over a period of 2 weeks) subcutaneously, every other day. Blood glucose levels were monitored daily.
# Glucose tolerance tests were also performed as follows: After two weeks mice were fasted for 12 hours, then injected with D-glucose (1.5 g/Kg, IP) and blood glucose levels were examined at 0, 10, 20, 30, 60, 90 and 120 minutes, in order to evaluate pancreatic function.
# [2] = tested on: STZ-induced diabetic ICR mice; assay: Blood glucose in STZ-induced diabetic ICR mice, long-term AGS treatment (5 months) with or without insulin; set-up: Blood Glucose At 101 day / Blood Glucose At 111 day: unit: mg/dL; settings: for circulating glucose levels in diabetic animals: summary statement
# Experimental: [0182]7 week-old female ICR mice were intra-peritoneally injected with STZ (40 mg\Kg) for 5 consecutive days. Non-diabetic mice received citrate buffer (pH 4.3, cold), which served as the vehicle controls for this study. AGS-500 (6 mg\Kg) was then administered subcutaneously every 2 days, for 5 months, on the first day after STZ administration. A further control group, where DMSO was administered in accordance with this regimen, was included. Mice were divided into the following 6 groups (10 mice per group except STZ only-5 mice): • STZ only • STZ+DMSO • Citrate+DMSO 1% every day • STZ+AGS-499 (6 mg/kg) injected every day S.C • STZ+AGS-500 (6 mg/kg) injected every day S.C • STZ+AGS-500 (6 mg/kg) injected every other day S.C Mice were weighed and blood glucose levels were measured using a free style glucometer. Food consumption was also measured 24 hours prior to STZ injection. The concentration of STZ to be injected was calculated. STZ at 40 mg/kg was injected ip for 5 consecutive days. AGS treatment was administered one day following the last STZ injection. The establishment of diabetes was validated by the assessment of blood glucose levels performed every 3 days (at the beginning) and once a week after 59 days from the initiation of the experiment. Blood glucose levels over 200 mg/dl (measured 3 consecutive times) indicated a diabetic state. At 80 days from the initiation of the experiments each group was divided to 2 subgroups which received either insulin (4 units/kg) or acetic acid (0.015%) both in HEPES buffer (pH 7.45) injected every 48 hours. Mice were sacrificed after 5 months from the initiation of the experiments. Blood glucose levels were monitored every 3 days. Ten weeks after the beginning of this study, each group was divided into 2 sub-groups, one of each also received insulin (4 U\Kg) every 2 days, except for the non-diabetic sub-groups. Acetic acid (1%) served as the vehicle control.
# [3] = tested on: STZ-induced diabetic ICR mice; assay: Blood glucose over time in STZ mice, short course (2 weeks) AGS treatment with or without insulin
# Experimental: as §1, §2
# [4] = tested on: STZ-induced diabetic ICR mice; assay: Glucose Tolerance Test (GTT) in STZ diabetic mice after 2 and 5 months; settings: daily
# Experimental: Glucose Tolerance Test: Animals were fasted for 12 hr with free access to water. Blood-glucose levels after fast were measured and then the animals received an i.p. injection of glucose (1.5 g/kg). Blood samples were taken at several intervals (for the duration of 2 hr), when glucose levels above 200 mg/dl at 2 hr confirmed a diagnosis of diabetes.
# […] Mice were subjected to 12 hours fast (with water) weighed, blood glucose level was measured and Glucose at 1.5 gr/kg in no more than 100 μl was injected IP. Blood glucose levels were measured at 10, 20, 30, 60, 90 and 120 min after glucose injection. glucose tolerance test.
# [5] = tested on: insulin expressing beta islets; assay: Immunofluorescence of pancreatic slices with anti-insulin antibody, insulin expressing beta islets in mice; settings: for pancreatic beta cell mass: summary statement
# Experimental: The light grey (originally red) stains insulin producing cells, and the darker grey (originally blue) is for DAPI staining. Density of insulin staining per area was measured using “Image J” software (D-E). The results are mean±S.E.; n=4. ***p<0.005. Magnification: ×10.
# [6] = tested on: STZ-induced diabetic mice, kidney glomeruli; assay: Kidney histopathology (PAS staining of glomeruli) in STZ diabetic mice; settings: summary statement
# Experimental: Mice were treated as described hereinabove. Following one month of treatment mice were sacrificed and histolopathological examination of the kidney was performed.
# FIG. 9 plots the evaluation of a number of parameters assessed via the histopathology analysis.
compound,measurement,setting,value
"CCOCc1cc(C(C)(c2cc(COCC)c(O)c(COCC)c2)c2cc(COCC)c(O)c(COCC)c2)cc(COCC)c1O [AGS-499, 1,1,1,1-tris (4-hydroxy-3,5-methylene ethoxy-phenyl)-ethane]",mean blood glucose levels in a glucose tolerance test,"[1]; 6 mg/Kg subcutaneously or orally every other day, FIG. 11",reduced mean blood glucose levels
same,effect of adding insulin on circulating glucose levels in a glucose tolerance test,"[1]; AGS subcutaneously (AGS500 also orally), FIG. 12",adding insulin did not appreciably lower the circulating levels
same,% reduction in blood glucose level,"[2]; after 12 hours fast, day 142, 6 mg/kg s.c. daily",20%
same,Blood glucose level Average,"[2]; after 12 hours fast, day 142, 6 mg/kg s.c. daily, in mg/dL (unit assumed)",317
same,% reduction In blood Glucose 101 day,"[2]; no insulin, daily",29%
same,Blood Glucose At 101 day,"[2]; no insulin, daily",500
same,Blood Glucose At 111 day,"[2]; no insulin, daily",500
same,reduction In blood Glucose 111 day,"[2]; no insulin, daily",17%
same,Blood Glucose At 101 day,"[2]; with insulin (4 units/kg every 48 hours), AGS daily",480
same,% reduction In blood Glucose 101 day,"[2]; with insulin, AGS daily",32%
same,Blood Glucose At 111 day,"[2]; with insulin, AGS daily",400
same,reduction In blood Glucose 111 day,"[2]; with insulin, AGS daily",34%
same,circulating glucose levels over time,"[3]; 6 mg/Kg every other day, short course (2 weeks), FIG. 13-1",lowering circulating glucose levels significantly
same,"circulating glucose levels over time, combined with insulin therapy","[3]; short course, insulin 0.5-6 units/Kg, FIG. 13-2",synergistic contribution
same,Improvement (fold),[4]; GTT after 2 months,3 fold
same,Fold of Improvement,[4]; GTT after 5 months,3 fold
same,Time needed for the Pancreas to cope glucose load after 5 months,[4]; GTT,30 min
same,Time needed for the Pancreas to cope with glucose load after 2 months,[4]; GTT,30 min
same,No of insulin expressing beta islets/mouse,"[5]; no insulin, daily",4.3
same,increase in Insulin expressing Beta islets,"[5]; no insulin, daily",165%
same,No of insulin expressing beta islets/mouse,"[5]; with insulin, AGS daily",3.5
same,increase in Insulin expressing Beta islets,"[5]; with insulin, AGS daily",135%
CCOCc1cc(C(C)(c2cc(COCC)c(O)c(COCC)c2)c2cc(COCC)c(O)c(COCC)c2)cc(COCC)c1O [formula XIII],circulating glucose levels in diabetic animals,[2],promoted reduction of circulating glucose levels
same,kidney damage in diabetic subjects,[6],reduced kidney damage
same,pancreatic beta cell mass,[5],increase of pancreatic beta cell mass
CC(c1cc(Br)c(O)c(Br)c1)(c1cc(Br)c(O)c(Br)c1)c1cc(Br)c(O)c(Br)c1 [formula XIV],circulating glucose levels in diabetic animals,[2],promoted reduction of circulating glucose levels
same,kidney damage in diabetic subjects,[6],reduced kidney damage
same,pancreatic beta cell mass,[5],increase of pancreatic beta cell mass
CC(c1cc(CN2CCCC2)c(O)c(CN2CCCC2)c1)(c1cc(CN2CCCC2)c(O)c(CN2CCCC2)c1)c1cc(CN2CCCC2)c(O)c(CN2CCCC2)c1 [formula XI],circulating glucose levels in diabetic animals,[2],promoted reduction of circulating glucose levels
same,kidney damage in diabetic subjects,[6],reduced kidney damage
same,pancreatic beta cell mass,[5],increase of pancreatic beta cell mass
insulin: insulin (4 units/kg) in HEPES buffer injected every 48 hours [reference compound],circulating glucose levels in control groups,"[2]; insulin 4 U/Kg every 2 days, STZ-induced diabetic mice, FIG. 2C",lowered circulating glucose levels in control groups
same,Blood Glucose At 101 day,"[2]; insulin only (4 units/kg every 48 hours), STZ or STZ + vehicle groups",700
same,Blood Glucose At 111 day,"[2]; insulin only, STZ or STZ + vehicle groups",600
same,No of insulin expressing beta islets/mouse,"[5]; insulin alone (STZ, DMSO)",3.25
same,increase in Insulin expressing Beta islets,"[5]; insulin alone (STZ, DMSO)",125%
